The text below walks through data of the OPERA property sets (Mansouri et al. 2018).

In the case of `Brc1cc(Br)c(-c2c(Br)cc(Br)cc2Br)c(Br)c1`, the log10 Koc (L/kg) turned out to be 4.87. For `CCCCCCCCCCCCCOC(=O)c1ccccc1C(=O)OCCCCCCCCCCCCC`, the ready biodegradability entry was “not readily biodegradable”. In the case of `CCCCNC(=S)NCCCC`, the melting point is 64 °C. `CCCCCON=O` registered a boiling point of 104 °C and a log10 vapour pressure (mmHg) of 0.598. `CCCCCCCCCCCC(=O)CC` came in with a melting point of 34 °C. `C1CCCNCCC1` had a melting point of 29 °C. As for `CC=C(C)CCl`, the boiling point came out at 110 °C.

`O=C(O)c1ccccc1SSc1ccccc1C(=O)O` gave a melting point of 288 °C. With `CCCCCCC(C)(C)C`, the boiling point was 155 °C.

`CCCCN(CCO)CCO` registered a boiling point of 275 °C.

For the compound `CC(C)CC(C)(C#N)N=NC(C)(C#N)CC(C)C` (stereo unspecified), the ready biodegradability result is listed as “not readily biodegradable”.

In the case of `Cc1cc(C)c(N)c(Cl)c1`, the ready biodegradability result is “not readily biodegradable”. Regarding `CCCCCCCCCCCCO`, the boiling point came to 259 °C, the log10 Henry constant (atm·m³/mol) was -4.65, the log10 Koc (L/kg) is 3.52 and the log10 vapour pressure (mmHg) is -3.07. For the same compound, the melting point is 24 °C and the ready biodegradability entry is reported as “readily biodegradable”. On to `CCCCCCCCC(=O)Cl`, for which the boiling point was found to be 215 °C and the melting point is -60.5 °C. In turn, `O=C(O)c1ccc2ccccc2c1O` registered a melting point of 195 °C. For the compound `ClC=CBr`, the boiling point is 84.6 °C and the melting point was -86.7 °C. In the case of `CCCCCCCCCCBr`, the boiling point was determined as 241 °C, the log10 vapour pressure (mmHg) was -1.4 and the melting point was -29.2 °C. As for `Cc1ccccc1NCCO`, the boiling point is 286 °C. For the compound `C=CCN(CC=C)C(=O)COC(=O)c1ccccc1`, the melting point came out at 42.5 °C. Consider `Cn1ccc(=O)n(C)c1=O`, for which the log10 vapour pressure (mmHg) was -2.26 and the melting point worked out at 120 °C. As to `CCCCCCCCCCC1CCCCC1`, the boiling point worked out at 299 °C, the log10 vapour pressure (mmHg) was -2.99 and the melting point was -1.7 °C.

Turning to `CCCC(=O)C(C)C`, the boiling point amounted to 135 °C. Compound `COc1cc(CNC(=O)CCCC/C=C/C(C)C)ccc1O` returned a melting point of 65 °C. The same measure, in the same setting: then `COc1ccccc1OCCNCC(O)COc1cccc2[nH]c3ccccc3c12` (stereo unspecified), with 114 °C. Compound `CC(O)(CCl)CCl` showed a boiling point of 174 °C.

Take `O=C(CCl)c1cccc([N+](=O)[O-])c1`: the log10 vapour pressure (mmHg) is -5.06. Consider `C=C(C)C(=O)OCC(CC)(COC(=O)C(=C)C)COC(=O)C(=C)C`, for which the ready biodegradability entry was “readily biodegradable”.

For the compound `Clc1ccccc1-c1c(Cl)cccc1Cl`, the log10 Henry constant (atm·m³/mol) was -3.64.

Compound `C=CCN=C(S)NCCO` returned a melting point of 78 °C. For the compound `CCCCCCC(=O)CCCCC`, the melting point was 10 °C. `c1ccc(-c2cc3ccccc3[nH]2)cc1`: the melting point is 190 °C and the ready biodegradability entry was “not readily biodegradable”. For `O=c1cc(CN2CCOCC2)c2cc(O)c(O)cc2o1`, the melting point worked out at 232 °C.

`CCNC1CCCCC1`: the boiling point was determined as 164 °C. Compound `Cc1cccc(N=Nc2ccc(N(C)C)cc2)c1` showed a melting point of 138 °C. Consider `COc1ccc2c(c1)N(CCCN(C)C)c1ccccc1S2`, for which the melting point was found to be 46 °C. `CC1=C(C(=O)O)CCC1(C)C` came in with a boiling point of 256 °C and a melting point of 135 °C. For the compound `CC(=O)CC(=O)CC(C)=O`, the melting point was found to be 49 °C. In turn, `N#CCc1ccc(N)cc1` showed a boiling point of 312 °C and a melting point of 46 °C. Take `NC(=O)CCC/N=C(\c1ccc(Cl)cc1)c1cc(F)ccc1O`: the melting point stood at 134 °C. Still for that read-out and setting: the same measure for `COc1c2ccoc2cc2oc(CO[C@@H]3O[C@H](CO)[C@@H](O)[C@H](O)[C@H]3O)cc(=O)c12`: 179 °C. For `N#Cc1sc2c(=O)c3ccccc3c(=O)c=2sc1C#N`, the log10 vapour pressure (mmHg) was -10.7, the melting point worked out at 225 °C and the ready biodegradability result is “not readily biodegradable”. On to `C1COCO1`, for which the boiling point amounted to 78 °C, the log10 Henry constant (atm·m³/mol) was -4.61, the log10 vapour pressure (mmHg) came out at 1.9 and the melting point was -95 °C. With `Cc1ccc2c(C)c(C)ccc2c1`, the melting point turned out to be 14 °C. Take `COC(=O)OC`: the boiling point is 90.5 °C, the log10 vapour pressure (mmHg) came out at 1.74 and the melting point amounted to 3 °C.

The compound `SC1CCCC1` displayed a boiling point of 132 °C and a log10 vapour pressure (mmHg) of 1.06. As to `Cc1ncc(CO)c(C(=O)O)c1O`, the melting point came out at 248 °C. Compound `BrCc1ccc(Br)cc1` had a melting point of 63 °C. Still for that read-out and setting: then `CCNc1nc(Cl)nc(NCC(=O)OCC)n1`, with 228 °C; and `O=C(Cl)CCCCCCCCC(=O)Cl`, with -2.5 °C; and `O=C(c1ccccc1)c1ccc(Cl)c([N+](=O)[O-])c1`, with 105 °C. The same measure, in the same setting: then `CCCCCCCCCCCCCCCC[N+](C)(C)C.[Br-]`, with 240 °C; and `Cc1cccc2c1ccc1c3ccccc3ccc21`, with 256 °C. For `N#CSC#N`, the melting point came to 63.5 °C. Take `CN(N=O)c1ccc(N=O)cc1`: the melting point was 101 °C.

Take `CCCCCCCCCCOC(=O)CCCCC(=O)OCCCCCCCC`: the melting point is -50 °C. `O=C(OCCO)c1ccccc1` registered a melting point of 45 °C. Same read-out and setting: then `COc1ccc2cc3[n+](cc2c1OC)CCc1cc2c(cc1-3)OCO2`, with 145 °C.

For orientation: melting point means the temperature of the solid-liquid transition. The boiling point is the temperature of boiling at a given pressure.
